Laboratory results taken from publication PMC7664879, “Discovery of 12O—A Novel Oral Multi-Kinase Inhibitor for the Treatment of Solid Tumor” (Molecules, 2020).

Assays:
[1] = biological target: T1, Src(1-530)(h) (Homo sapiens, UniProt P12931); experiment: Kinase inhibition assay (Eurofins KinaseProfiler); assay type: biochemical; conditions: ATP at Km
T1 construct: Src (1-530) (h) was incubated with; purchased Eurofins (KinaseProfiler service)
Experimental: (§1) Kinase inhibition profiles were determined using KinaseProfiler services provided by Eurofins, and ATP concentrations used are the Km of corresponding kinases.
Src (1-530) (h) was incubated with 8 mM MOPS pH 7.0, 0.2 mM EDTA, 500 uM GGEEEEYFELVKKKK, 10 mM MgAcetate and [gamma-33P]-ATP.
(§2) All the reactions above were initiated by the addition of the Mg/ATP mix. After incubation for 40 min at room temperature, the reaction was stopped by the addition of phosphoric acid to a concentration of 0.5%. An amount of 10 µL of the reaction was then spotted onto a P30 filtermat and washed four times for 4 min in 0.425% phosphoric acid and once in methanol prior to drying and scintillation counting.

[2] = tested on: 4T1; experiment: CCK-8 cell growth inhibition, 4T1; assay type: cell-based; conditions: Mus musculus, 4T1; breast cancer; CCK-8 assay, 72-h incubation
Experimental: (§3) In vitro anticancer screening of all newly synthesized compounds towards human solid tumor cells, cervical (SiHa) and ovarian (SKOV3) cancer cell lines, was carried out by standard CCK-8 assay with cisplatin as the positive control, as cisplatin is one of the most used chemotherapy drugs. […] The compound was further evaluated in a dose response study against a panel of solid tumor cells, including cervical cancer cell lines (SiHa and HeLa), ovarian cancer cell lines (SKOV3 and OVCAR-5), breast cancer cell lines (4T1 and MCF-7), lung cancer cell lines (A549 and H460) to test cytotoxic activity. The IC50 values were summarized in Table 2, including the cytotoxic activity of the cisplatin used as reference compound.
(§4) The viability of cells as determined using the CCK8 assay method. Cells were seeded (2000–3000 cells per well) in 96-well plates. After incubation for 24 h in serum-containing media, the cells were treated with drugs at different concentrations diluted with culture medium for 72 h at 37 °C with a 5% CO2 atmosphere. […] Finally, absorbance values of test wells (AS), control wells (AC) and blank wells (Ab) at 450 nm were read using the Microplate Reader (Promega, WI). Inhibition ratios were calculated as follows: [(AC − AS)/ (AC−Ab)] × 100%. IC50 values were calculated using GraphPad software.

[3] = biological target: T2, CDK9/cyclin T1(h) (Homo sapiens, UniProt P50750); experiment: Kinase inhibition assay (Eurofins KinaseProfiler); assay type: biochemical; conditions: ATP at Km
T2 construct: purchased Eurofins (KinaseProfiler service)
Experimental: as §1
CDK9/cyclinT1 (h) was incubated with 8 mM MOPS pH 7.0, 0.2 mM EDTA, 100 uM […], 10 mM MgAcetate and [gamma-33P]-ATP (specific activity and concentration as required).
as §2

[4] = biological target: T3, KDR (VEGFR2) (Homo sapiens, UniProt P35968); experiment: Kinase inhibition assay (Eurofins KinaseProfiler); assay type: biochemical; conditions: ATP at Km
T3 construct: purchased Eurofins (KinaseProfiler service)
Experimental: as §1
KDR (h) was incubated with 8 mM MOPS pH 7.0, 0.2 mM EDTA, 0.33 mg/mL myelin basic protein, 10 mM MgAcetate and [gamma-33P]-ATP.
as §2

[5] = biological target: T4, c-Kit(h) (Homo sapiens, UniProt P10721); experiment: Kinase inhibition assay (Eurofins KinaseProfiler); assay type: biochemical; conditions: ATP at Km
T4 construct: purchased Eurofins (KinaseProfiler service)
Experimental: as §1
c-Kit (h) was incubated with 8 mM MOPS pH 7.0, 0.2 mM EDTA, 10 mM MnCl2, 0.1 mg/mL poly(Glu, Tyr) 4:1, 10 mM MgAcetate and [gamma-33P]-ATP.
as §2

[6] = tested on: HeLa; experiment: CCK-8 cell growth inhibition, HeLa; assay type: cell-based, human; conditions: Homo sapiens, HeLa; cervical cancer; CCK-8 assay, 72-h incubation
Experimental: as §3, §4

[7] = biological target: T5, FGFR1(h) (Homo sapiens, UniProt P11362); experiment: Kinase inhibition assay (Eurofins KinaseProfiler); assay type: biochemical; conditions: ATP at Km
T5 construct: purchased Eurofins (KinaseProfiler service)
Experimental: as §1
FGFR1 (h) was incubated with 8 mM MOPS pH 7.0, 0.2 mM EDTA, 250 uM KKKSPGEYVNIEFG, 10 mM MgAcetate and [gamma-33P]-ATP.
as §2

[8] = biological target: T6, FLT3(h) (Homo sapiens, UniProt P36888); experiment: Kinase inhibition assay (Eurofins KinaseProfiler); assay type: biochemical; conditions: ATP at Km
T6 construct: purchased Eurofins (KinaseProfiler service)
Experimental: as §1
(§5) Flt1 (h) was incubated with 8 mM MOPS pH 7.0, 0.2 mM EDTA, 250 uM KKKSPGEYVNIEFG, 10 mM MgAcetate and [g- 33P]-ATP; Flt3 (h) [Abl (h)] was incubated with 8 mM MOPS pH 7.0, 0.2 mM EDTA, 50 uM EAIYAAPFAKKK, 10 mM MgAcetate and [gamma-33P]- ATP; Flt4 (h) was incubated with 8 mM MOPS pH 7.0, 0.2 mM EDTA, 500 uM GGEEEEYFELVKKKK, 10 mM MgAcetate and [gamma-33P]-ATP.
as §2

[9] = biological target: T7, Abl(h) (Homo sapiens, UniProt P00519); experiment: Kinase inhibition assay (Eurofins KinaseProfiler); assay type: biochemical; conditions: ATP at Km
T7 construct: purchased Eurofins (KinaseProfiler service)
Experimental: as §1, §5, §2

[10] = biological target: T8, FLT4 (VEGFR3) (Homo sapiens, UniProt P35916); experiment: Kinase inhibition assay (Eurofins KinaseProfiler); assay type: biochemical; conditions: ATP at Km
T8 construct: purchased Eurofins (KinaseProfiler service)
Experimental: as §1, §5, §2

[11] = biological target: T9, FLT1 (VEGFR1) (Homo sapiens, UniProt P17948); experiment: Kinase inhibition assay (Eurofins KinaseProfiler); assay type: biochemical; conditions: ATP at Km
T9 construct: purchased Eurofins (KinaseProfiler service)
Experimental: as §1, §5, §2

[12] = biological target: T10, CDK7/cyclinH/MAT1(h) (Homo sapiens, UniProt P50613); experiment: Kinase inhibition assay (Eurofins KinaseProfiler); assay type: biochemical; conditions: ATP at Km
T10 construct: purchased Eurofins (KinaseProfiler service)
Experimental: as §1
CDK7/cyclinH/MAT1 (h) was incubated with 8 mM MOPS pH 7.0, 0.2 mM EDTA, 500 uM peptide, 10 mM MgAcetate and [gamma-33P]-ATP (specific activity and concentration as required).
as §2

[13] = tested on: SiHa cells; experiment: Colony formation assay, SiHa; assay type: cell-based, human
Description: (§6) Colony formation assay assesses the effect of a therapy on clonogenic survival which is one of the most important parameters of therapy efficacy in oncology. […] We also performed colony formation assay in SKOV3 cells at concentrations according to IC50 values to confirm the result (Figure S3).
(§7) Cells treated with indicated compounds or vehicle were washed with PBS, trypsinized, and reseeded into 6-well plates at 500–1000 cells per well. The colonies were allowed to form for 10–15 days. At the end of the culture, cells were washed with PBS, fixed with methanol for 30 min, then stained with 0.5% crystal violet overnight. After careful washing, the images were taken.

[14] = tested on: SKOV3 cells; experiment: Colony formation assay, SKOV3; assay type: cell-based, human
Description: as §6, §7

[15] = tested on: SKOV3; experiment: CCK-8 cell growth inhibition, SKOV3; assay type: cell-based, human; conditions: Homo sapiens, SK-OV-3; CCK-8 assay, 72-h incubation; read-out: Cell Lines IC50 SKOV3
Experimental: as §3
The viability of cells as determined using the CCK8 assay method. Cells were seeded (2000–3000 cells per well) in 96-well plates. After incubation for 24 h in serum-containing media, the cells were treated with drugs at different concentrations diluted with culture medium for 72 h at 37 °C with a 5% CO2 atmosphere. Then, 10 μL CCK8 regent (Promega, WI) was added to each well, and the plates were incubated for 1–4 h at 37 °C. Finally, absorbance values of test wells (AS), control wells (AC) and blank wells (Ab) at 450 nm were read using the Microplate Reader (Promega, WI). Inhibition ratios were calculated as follows: [(AC − AS)/ (AC−Ab)] × 100%. IC50 values were calculated using GraphPad software.

T8 sequence (P35916 25-1363): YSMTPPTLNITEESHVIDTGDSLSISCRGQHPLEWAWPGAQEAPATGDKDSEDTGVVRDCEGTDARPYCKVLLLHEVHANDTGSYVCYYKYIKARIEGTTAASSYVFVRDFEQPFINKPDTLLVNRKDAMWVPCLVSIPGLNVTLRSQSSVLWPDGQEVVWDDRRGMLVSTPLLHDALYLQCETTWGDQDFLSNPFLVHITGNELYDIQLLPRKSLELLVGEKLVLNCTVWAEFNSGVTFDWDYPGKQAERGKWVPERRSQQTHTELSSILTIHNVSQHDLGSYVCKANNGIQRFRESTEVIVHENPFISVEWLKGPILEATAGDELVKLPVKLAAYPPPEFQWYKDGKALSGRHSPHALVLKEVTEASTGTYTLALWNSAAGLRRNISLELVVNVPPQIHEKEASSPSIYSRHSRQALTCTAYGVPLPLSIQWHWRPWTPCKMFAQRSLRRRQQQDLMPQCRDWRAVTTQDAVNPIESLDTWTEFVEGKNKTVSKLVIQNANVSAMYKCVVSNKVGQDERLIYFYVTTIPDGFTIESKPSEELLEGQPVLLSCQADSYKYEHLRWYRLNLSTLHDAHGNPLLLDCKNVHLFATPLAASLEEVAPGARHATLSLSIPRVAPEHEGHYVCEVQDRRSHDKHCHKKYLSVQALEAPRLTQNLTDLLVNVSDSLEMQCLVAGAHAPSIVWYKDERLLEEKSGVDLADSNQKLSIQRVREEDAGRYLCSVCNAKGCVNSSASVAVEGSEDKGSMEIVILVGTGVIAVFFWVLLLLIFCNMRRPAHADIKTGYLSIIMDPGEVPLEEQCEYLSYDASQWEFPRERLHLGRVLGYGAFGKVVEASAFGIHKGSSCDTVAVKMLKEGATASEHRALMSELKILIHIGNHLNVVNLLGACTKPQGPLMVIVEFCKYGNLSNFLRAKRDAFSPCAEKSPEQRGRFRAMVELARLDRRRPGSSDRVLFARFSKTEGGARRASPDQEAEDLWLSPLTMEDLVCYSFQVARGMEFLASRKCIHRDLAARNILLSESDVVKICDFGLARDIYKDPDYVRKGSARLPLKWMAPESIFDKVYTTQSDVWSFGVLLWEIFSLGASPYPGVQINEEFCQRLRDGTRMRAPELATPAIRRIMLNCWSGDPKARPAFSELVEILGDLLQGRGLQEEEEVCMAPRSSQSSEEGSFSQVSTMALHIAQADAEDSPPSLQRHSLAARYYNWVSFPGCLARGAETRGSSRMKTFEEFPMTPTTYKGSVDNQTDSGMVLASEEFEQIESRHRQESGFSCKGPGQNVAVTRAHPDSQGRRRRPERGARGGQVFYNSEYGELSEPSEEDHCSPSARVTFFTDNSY
T6 sequence (P36888 27-993): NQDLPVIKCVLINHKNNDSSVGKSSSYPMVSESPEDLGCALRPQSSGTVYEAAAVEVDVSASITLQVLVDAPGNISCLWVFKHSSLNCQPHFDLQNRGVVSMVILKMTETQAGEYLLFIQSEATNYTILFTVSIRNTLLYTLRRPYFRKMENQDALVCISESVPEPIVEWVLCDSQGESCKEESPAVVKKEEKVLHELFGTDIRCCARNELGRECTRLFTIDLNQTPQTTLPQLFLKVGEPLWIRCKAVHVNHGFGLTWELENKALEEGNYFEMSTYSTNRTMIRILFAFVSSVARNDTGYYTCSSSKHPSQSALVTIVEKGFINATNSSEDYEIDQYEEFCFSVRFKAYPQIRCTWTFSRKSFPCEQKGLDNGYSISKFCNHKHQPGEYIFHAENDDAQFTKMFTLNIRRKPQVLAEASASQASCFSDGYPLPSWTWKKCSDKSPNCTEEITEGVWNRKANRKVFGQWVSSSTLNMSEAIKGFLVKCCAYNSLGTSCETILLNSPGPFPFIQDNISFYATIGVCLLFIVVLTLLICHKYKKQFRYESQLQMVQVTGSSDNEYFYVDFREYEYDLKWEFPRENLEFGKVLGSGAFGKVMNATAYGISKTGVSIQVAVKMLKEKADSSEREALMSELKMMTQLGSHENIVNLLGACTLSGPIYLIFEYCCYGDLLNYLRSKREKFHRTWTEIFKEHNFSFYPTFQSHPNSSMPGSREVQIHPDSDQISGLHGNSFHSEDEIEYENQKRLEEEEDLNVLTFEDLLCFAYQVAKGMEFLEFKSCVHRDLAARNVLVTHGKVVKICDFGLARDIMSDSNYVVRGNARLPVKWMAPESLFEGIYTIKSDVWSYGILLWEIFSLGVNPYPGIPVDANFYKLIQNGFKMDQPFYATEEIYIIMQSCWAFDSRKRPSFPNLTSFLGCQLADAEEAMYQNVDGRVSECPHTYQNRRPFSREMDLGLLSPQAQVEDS
T2 sequence (P50750 whole entry): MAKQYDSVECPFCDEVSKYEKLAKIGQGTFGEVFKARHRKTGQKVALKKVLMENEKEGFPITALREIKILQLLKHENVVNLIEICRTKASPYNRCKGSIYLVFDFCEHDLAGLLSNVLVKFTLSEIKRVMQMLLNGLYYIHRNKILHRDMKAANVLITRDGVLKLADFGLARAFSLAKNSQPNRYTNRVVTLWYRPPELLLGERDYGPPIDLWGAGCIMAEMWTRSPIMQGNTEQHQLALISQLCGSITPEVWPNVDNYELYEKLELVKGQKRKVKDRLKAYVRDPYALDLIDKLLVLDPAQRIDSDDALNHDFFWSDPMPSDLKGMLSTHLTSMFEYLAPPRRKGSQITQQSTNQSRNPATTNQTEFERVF
T2 sequence (O60563 whole entry partner): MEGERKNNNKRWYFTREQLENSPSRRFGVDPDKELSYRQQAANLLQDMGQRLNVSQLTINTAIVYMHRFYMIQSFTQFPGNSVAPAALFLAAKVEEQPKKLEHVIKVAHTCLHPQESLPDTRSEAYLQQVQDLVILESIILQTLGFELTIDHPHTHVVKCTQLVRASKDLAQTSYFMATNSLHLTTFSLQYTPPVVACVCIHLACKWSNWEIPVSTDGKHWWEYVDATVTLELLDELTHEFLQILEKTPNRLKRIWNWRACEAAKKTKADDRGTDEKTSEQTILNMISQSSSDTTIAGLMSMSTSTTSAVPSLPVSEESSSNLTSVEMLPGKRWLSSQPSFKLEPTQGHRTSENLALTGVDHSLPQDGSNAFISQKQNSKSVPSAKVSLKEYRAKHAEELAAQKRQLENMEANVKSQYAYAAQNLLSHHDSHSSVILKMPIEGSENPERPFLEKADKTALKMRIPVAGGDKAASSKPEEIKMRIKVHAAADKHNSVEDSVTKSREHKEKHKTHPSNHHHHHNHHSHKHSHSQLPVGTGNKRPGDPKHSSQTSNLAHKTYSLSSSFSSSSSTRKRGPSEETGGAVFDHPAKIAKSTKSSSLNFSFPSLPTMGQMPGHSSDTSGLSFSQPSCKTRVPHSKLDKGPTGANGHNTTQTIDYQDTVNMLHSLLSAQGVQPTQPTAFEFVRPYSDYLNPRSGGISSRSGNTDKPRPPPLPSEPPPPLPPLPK
T1 sequence (P12931 1-530): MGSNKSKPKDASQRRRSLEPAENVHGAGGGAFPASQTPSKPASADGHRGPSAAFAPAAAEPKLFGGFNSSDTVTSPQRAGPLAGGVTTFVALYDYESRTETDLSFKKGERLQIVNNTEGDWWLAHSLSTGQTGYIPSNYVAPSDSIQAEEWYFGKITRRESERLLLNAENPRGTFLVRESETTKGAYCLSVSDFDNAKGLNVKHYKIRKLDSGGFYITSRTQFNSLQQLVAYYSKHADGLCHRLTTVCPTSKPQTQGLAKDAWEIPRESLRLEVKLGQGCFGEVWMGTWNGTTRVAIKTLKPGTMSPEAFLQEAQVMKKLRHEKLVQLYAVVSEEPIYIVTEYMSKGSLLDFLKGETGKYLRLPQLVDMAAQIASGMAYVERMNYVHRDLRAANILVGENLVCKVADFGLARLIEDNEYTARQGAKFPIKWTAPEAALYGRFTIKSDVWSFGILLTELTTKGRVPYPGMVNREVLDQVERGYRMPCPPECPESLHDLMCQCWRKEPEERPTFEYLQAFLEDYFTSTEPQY
T10 sequence (P50613 whole entry): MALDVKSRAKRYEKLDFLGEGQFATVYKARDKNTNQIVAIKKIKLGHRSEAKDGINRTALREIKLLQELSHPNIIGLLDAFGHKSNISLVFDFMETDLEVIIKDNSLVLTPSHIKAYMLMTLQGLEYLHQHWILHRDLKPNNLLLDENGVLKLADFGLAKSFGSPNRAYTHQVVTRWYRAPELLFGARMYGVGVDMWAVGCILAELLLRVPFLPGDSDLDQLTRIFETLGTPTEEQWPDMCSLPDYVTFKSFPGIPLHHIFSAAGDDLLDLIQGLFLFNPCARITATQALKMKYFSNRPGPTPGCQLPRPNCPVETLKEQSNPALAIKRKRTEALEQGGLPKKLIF
T10 sequence (P51946 whole entry partner): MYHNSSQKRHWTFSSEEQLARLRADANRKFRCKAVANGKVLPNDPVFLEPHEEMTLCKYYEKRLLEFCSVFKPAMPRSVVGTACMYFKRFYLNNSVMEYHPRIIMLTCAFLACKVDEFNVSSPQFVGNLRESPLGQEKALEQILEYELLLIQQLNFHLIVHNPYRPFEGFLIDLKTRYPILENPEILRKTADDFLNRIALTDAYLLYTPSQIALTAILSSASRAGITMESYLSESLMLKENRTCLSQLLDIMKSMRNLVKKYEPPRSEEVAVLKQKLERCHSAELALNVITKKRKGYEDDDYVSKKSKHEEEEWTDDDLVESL
T10 sequence (P51948 whole entry partner): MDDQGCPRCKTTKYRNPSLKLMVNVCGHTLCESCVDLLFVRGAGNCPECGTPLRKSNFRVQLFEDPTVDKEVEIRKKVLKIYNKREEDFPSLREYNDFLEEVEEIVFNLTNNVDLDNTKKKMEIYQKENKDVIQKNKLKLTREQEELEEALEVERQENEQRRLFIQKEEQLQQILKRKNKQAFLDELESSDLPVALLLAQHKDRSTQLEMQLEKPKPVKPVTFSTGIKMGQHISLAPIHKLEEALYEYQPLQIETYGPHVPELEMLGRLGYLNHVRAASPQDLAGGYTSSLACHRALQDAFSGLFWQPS

`CC(C)n1nnc2ccc(-c3nc(Nc4ccc(CNC(=O)C5(C(=O)Nc6ccccc6)CC5)cc4)ncc3F)cc21` [12O] showed an inhibition at 1 µM [1] of 46%, an IC50 [2] of 68 nM and an inhibition at 1 µM ([3]; 1 µM) of 100%. The IC50 [3] was 9 nM, the inhibition at 1 µM [4] was 81% and the inhibition at 1 µM [5] was 15%. For the same compound, the IC50 [6] was 24 nM, the inhibition at 1 µM [7] was -23% and the inhibition at 1 µM ([8]; 1 µM) was 98%. It also gave an IC50 [8] of 24 nM, an inhibition at 1 µM [9] of 31% and an inhibition at 1 µM ([10]; 1 µM) of 95%. For the same compound, the IC50 [10] was 68 nM, the inhibition at 1 µM [11] was 50% and the inhibition at 1 µM [12] was 53%. For the same compound, the formation of colonies [13] was “dose-dependently decreased”, the “proliferation by colony formation assay” value [14] was “effectively inhibited” and the IC50 [15] was 29 nM.
